# Experimental data: patent US4057684A, “Alkyl amino-glucopyranoside derivative and process for producing the same” (priority 1975, dated 1977)
# Legend:
# [1] = tested on: adenocarcinoma-755 (Ca-755); test: antitumor effect against adenocarcinoma-755 (Ca-755) implanted in mice; format: in vivo, mouse (BDF1)
# Excerpt: (§1) Results of pharmacological studies for amino-glucopyranoside [I] according to the invention are described below. The test compounds which were used included methyl N-carbamyl-N'-(2-chloroethyl)-N'-nitroso-2-amino-2-deoxy-α-D-glucopyranoside and methyl N-carbamyl-N'-(2-chloroethyl)-N'-nitroso-6-amino-6-deoxy-α-D-glucopyranoside (hereinafter abbreviated to 2MCαG and 6MCαG, respectively). The control compounds which were employed were 1-(2-chloroethyl)-3-cyclohexyl-1-nitrosoourea (hereinafter abbreviated to CCNU), which had been widely applied as a control compound in such a pharmacological test of the streptozotocin derivatives, and GCNU referred to previously. The tumor systems which were used were leukemia L-1210, Nakahara-Fukuoka sarcoma, adenocarcinoma-755, ascites sarcoma 180 and Ehrlich ascites carcinoma (hereinafter abbreviated to L-1210, NFS, Ca-755, S-180A and EAC, respectively), and the antitumor activities were determined by a procedure of the National Cancer Center, Tokyo (A. Hoshi et al.: Farumashia 9, 464(1973)). The test animals which were used were ICR and BDF1 mice.
# (§2) ^a Treatment was initiated 24 hr after implantation of tumor (day 1):
# (§3) D1~5 = qd, day 1~5; D1 = day 1 only.
# (§4) ^b T/C is expressed as the tumor weight ratio in solid tumors or tota
# (§5) packed cell volume ratio in ascites tumors of treated/control.
# [2] = peripheral white blood cell counts (bone marrow toxicity) and survival in normal male ICR mice; format: in vivo, mouse (ICR)
# Procedure: Such peripheral white blood cell counts were performed as follows: Normal male ICR mice were used in groups of tens and the test compounds for treatment were made into their respective solutions. 2MCαG and 6MCαG were dissolved in physiological saline solutions, while CCNU and GCNU were suspended in 0.5% CMC aqueous solution and 50% PEG aqueous solution, respectively. A single administration at volume of 1 ml per 100 g body weight of animal (0.1 ml/10 g) was given intraperitoneally, and the peripheral white blood cell counts were performed 3, 8 and 15 days after administration of the test compounds.
# [3] = tested on: Nakahara-Fukuoka sarcoma (NFS); test: antitumor effect against Nakahara-Fukuoka sarcoma (NFS) implanted in mice; format: in vivo, mouse (ICR)
# Excerpt: as §1, §2, §3, §4, §5
# [4] = tested on: leukemia L-1210; test: increase in life span and survival of leukemia L-1210 implanted mice; format: in vivo, mouse (BDF1)
# Excerpt: as §1, §2, §3
# ^d % increase in life span (mean survival time) over controls.
# ^e 60 days survivors/total in treated group.
# [5] = tested on: ascites sarcoma 180 (S-180A); test: antitumor effect against ascites sarcoma 180 (S-180A) implanted in mice; format: in vivo, mouse (ICR)
# Excerpt: as §1, §2, §3, §4, §5
# [6] = blood sugar level / diabetogenic activity; format: in vivo, rat (male Wister); details: rat, in vivo
# [7] = tested on: Ehrlich ascites carcinoma (EAC); test: antitumor effect against Ehrlich ascites carcinoma (EAC) implanted in mice; format: in vivo, mouse (ICR)
# Excerpt: as §1, §2, §3, §4, §5
# [8] = tested on: bacteria; test: antibacterial activity, broth dilution method
# [9] = tested on: solid as well as ascites tumor systems; test: antitumor activity in the tumor systems (overall); format: in vivo, mouse; details: for antitumor activity compared with its α-anomer: vs α-anomer; for antitumor activity compared with the compounds of examples 1 and 4: mouse, in vivo
# Excerpt: as §1
# [10] = 10.0 mg/kg/day ip D1~5, BDF1 mice
# [11] = 25.0 mg/kg/day ip D1~5, BDF1 mice
# [12] = 12.0 mg/kg/day ip D1~5, ICR mice
# [13] = 20.0 mg/kg/day ip D1~5, ICR mice
# [14] = 8.5 mg/kg/day ip, 5 successive days, BDF1 mice
# [15] = 3.2 mg/kg/day ip, 5 successive days
# [16] = 12.5 mg/kg/day ip D1~5, ICR mice
structure (smiles),measurement,setting,value
"O=NN(CCCl)C(=O)NC1CCCCC1 [CCNU, 1-(2-chloroethyl)-3-cyclohexyl-1-nitrosoourea, reference compound]",Activity,[1]; [10],+++ (20~0% = +++)
same,T/C,[1]; [10],15.0%
same,Activity,[1]; [11],Toxic
same,T/C,[1]; [11],1.1%
same,died/used,[1]; [11],6/6
same,Death rate (death/used),[2]; 20 mg/kg ip single,0/10
same,Average count of WBC,"[2]; 20 mg/kg ip single, day 3",38.7±2.9 x 10^2 WBC/mm^3
same,Average count of WBC,"[2]; 20 mg/kg ip single, day 8",81.8±5.0 x 10^2 WBC/mm^3
same,Average count of WBC,"[2]; 20 mg/kg ip single, day 15",100.4±9.8 x 10^2 WBC/mm^3
same,Death rate (death/used),[2]; 40 mg/kg ip single,1/10
same,Average count of WBC,"[2]; 40 mg/kg ip single, day 3",31.5±1.7 x 10^2 WBC/mm^3
same,Average count of WBC,"[2]; 40 mg/kg ip single, day 8",59.0±6.0 x 10^2 WBC/mm^3
same,Average count of WBC,"[2]; 40 mg/kg ip single, day 15",77.9±9.0 x 10^2 WBC/mm^3
same,Death rate (death/used),[2]; 60 mg/kg ip single,9/10
same,Average count of WBC,"[2]; 60 mg/kg ip single, day 3",27.9±3.7 x 10^2 WBC/mm^3
same,Average count of WBC,"[2]; 60 mg/kg ip single, day 8",60.0 x 10^2 WBC/mm^3
same,Average count of WBC,"[2]; 60 mg/kg ip single, day 15",36.0 x 10^2 WBC/mm^3
same,Death rate (death/used),[2]; 80 mg/kg ip single,10/10
same,Average count of WBC,"[2]; 80 mg/kg ip single, day 3",20.4±2.5 x 10^2 WBC/mm^3
same,Activity,[3]; [12],+ (70~51% = +)
same,T/C,[3]; [12],57.5%
same,Activity,[3]; [13],++ (50~21% = ++)
same,T/C,[3]; [13],48.3%
CO[C@H]1O[C@H](CNC(=O)N(CCCl)N=O)[C@@H](O)[C@H](O)[C@H]1NC(=O)N(CCCl)N=O [Example 3],ILS,"[4]; 2.2 mg/kg/day ip, 5 successive days",400%
same,ILS,[4]; 4.5 mg/kg/day orally,370%
same,60-days survivors,"[4]; single ip, 7~15 mg/kg",all six animals tested survived
same,ILS,"[4]; single ip, 7~15 mg/kg",717%
same,Activity,[1]; [14],++ or +++
same,Activity,[5]; [14],++ or +++
same,bone marrow toxicity compared with CCNU,"[2]; mouse, in vivo",less than that of CCNU
same,bone marrow toxicity compared with GCNU,"[2]; mouse, in vivo",comparable to GCNU
same,diabetogenic activity,[6],nondiabetogenic
same,Activity,[3]; [14],++ or +++
same,Activity,[7]; [14],++ or +++
same,antibacterial activity,[8],void of antibacterial activities
"CO[C@@H]1O[C@H](CO)[C@@H](O)[C@H](O)[C@H]1NC(=O)N(CCCl)N=O [Example 4, methyl N-carbamyl-N'-(2-chloroethyl)-N'-nitroso-2-amino-2-deoxy-β-D-glucopyranoside]",ILS,[4]; 3.2 mg/kg/day ip D1~5,480%
same,ILS,[4]; 6.3 mg/kg/day po D1~5,385%
same,60-days survivors,"[4]; single ip, 8~25 mg/kg",all six test animals surviving after 60-days
same,ILS,"[4]; single ip, 8~25 mg/kg",717%
same,Activity,"[1]; 12.5 mg/kg/day ip D1~5, BDF1 mice",++ or +++
same,accumulation of ascites tumor cells,[5]; [15],ascites cells accumulation was not detectable
same,Activity,[5]; [16],++ or +++
same,"bone marrow toxicity, less than the α-anomer",[2]; LD10 dosage,5~20%
same,"peripheral white blood cell count, higher than that of the α-anomer","[2]; LD10 dosage, 3, 8 and 15 days",5~20%
same,antitumor activity compared with its α-anomer,[9],110~120%
same,diabetogenic activity,[6],not found to be either diabetogenic
same,Activity,[3]; [16],++ or +++
same,accumulation of ascites tumor cells,[7]; [15],ascites cells accumulation was not detectable
same,Activity,[7]; [16],++ or +++
same,antibacterial activity,[8],not found to be either diabetogenic or exhibited any antibacterial activities
"CO[C@@H]1O[C@H](CNC(=O)N(CCCl)N=O)[C@@H](O)[C@H](O)[C@H]1NC(=O)N(CCCl)N=O [Example 7, methyl di-N,N'-[N-(2-chloroethyl)-N-nitroso-carbamyl]-2,6-di-amino-2,6-di-deoxy-3-D-glucopyranoside]",bone marrow toxicity compared with its α-anomer,[2]; vs compound of example 3,reduced bone marrow toxicities
same,antitumor activity compared with its α-anomer,[9],5~20%
same,diabetogenic activity,[6],neither diabetogenic nor antibacterial activities
same,antibacterial activity,[8],neither diabetogenic nor antibacterial activities
"CCCCO[C@@H]1O[C@H](CO)[C@@H](O)[C@H](O)[C@H]1NC(=O)N(CCCl)N=O [Example 9 3-anomer, n-butyl N-carbamyl-N'-(2-chloroethyl)-N'-nitroso-2-amino-2-deoxy-3-D-glucopyranoside]",bone marrow toxicity compared with the compounds of examples 1 and 4,"[2]; mouse, in vivo",same low levels
same,antitumor activity compared with the compounds of examples 1 and 4,[9],same level of anitumor activity
same,diabetogenic activity,[6],neither diabetogenic nor antibacterial activities
same,antibacterial activity,[8],neither diabetogenic nor antibacterial activities
"CCCCO[C@H]1O[C@H](CO)[C@@H](O)[C@H](O)[C@H]1NC(=O)N(CCCl)N=O [Example 9 α-anomer, n-butyl N-carbamyl-N'-(2-chloroethyl)-N'-nitroso-2-amino-2-deoxy-α-D-glucopyranoside]",bone marrow toxicity compared with the compounds of examples 1 and 4,"[2]; mouse, in vivo",same low levels
same,antitumor activity compared with the compounds of examples 1 and 4,[9],same level of anitumor activity
same,diabetogenic activity,[6],neither diabetogenic nor antibacterial activities
same,antibacterial activity,[8],neither diabetogenic nor antibacterial activities
"CO[C@@H]1O[C@H](CNC(=O)N(CCCl)N=O)[C@@H](O)[C@H](O)[C@H]1O [Example 12, methyl N-carbamyl-N'-(2-chloroethyl)-N'-nitroso-6-amino-6-deoxy-β-D-glucopyranoside]",reduced bone marrow toxicity compared with its α-anomer,[2]; vs α-anomer,110~120%
same,antitumor activity compared with its α-anomer,[9],110~120%
same,diabetogenic activity,[6],neither diabetogenic nor antibacterial activities
same,antibacterial activity,[8],neither diabetogenic nor antibacterial activities
